Target: T1, PI3Kα H1047R (T47D cells) (Homo sapiens, UniProt P42336, H1047R)
T1 construct: endogenous in cells; host or cells: T47D cells
Experiment: PI3Kα cellular assay: pAKT HTRF in T47D cells after EGF stimulation
Assay type: cell-based
Details: for IC50: T47D cells (PI3Kα H1047R), pAKT S473 HTRF
Method: SKBR3 or T47D cells are seeded in DMEM containing 10% FBS at 25k cells/well into 96-well cell culture format. Cells are incubated overnight at 37° C. in a 5% CO2 incubator and the following day cell media is aspirated, adherent cells are washed 1× with room temperature PBS prior to serum-free media application. Cells are returned to 37° C. 5% CO2 incubator and incubated a further 16 hrs. Compounds are added to serum starved adherent cells with a top dose of 10,000 nM and 3× multiple dose reductions for a minimum dose of 0.5 nM diluted in DMSO. Cell/compound incubation continues for 1 hr in a 37° C., 5% CO2 incubator prior to 10 minute PIK3CA stimulation with 20 ng/ml EGF. Cells treated with 0.1% DMSO and 20 ng/mL EGF are employed as negative control, cells treated with 10 uM Alpelisib and 20 ng/mL EGF are employed as a positive control. After 10 mins, plates are removed from incubator and cells are lysed with buffer and shaking 45 minutes. […] 384 well plate is left overnight at room temperature before reading HTRF on an Envision plate reader.
ND denotes value not determined with that assay for the specified compound; • for T47D (H1047R) selectivity over SKBR3 (WT): A denotes >20-fold; B denotes 20-fold≥value>5-fold; C denotes ≤5-fold. ND denotes value not determined with that assay for the specified compound; and • for T47D pAKT lipophilic efficiency (LiPE): A denotes >4; B denotes 4≥value>2; C denotes ≤2. ND denotes value not determined with that assay for the specified compound.

[1] = selectivity of T47D (H1047R) over SKBR3 (WT) pAKT IC50
[2] = 1 hr compound, 20 ng/ml EGF 10 min
[3] = selectivity T47D (H1047R) over SKBR3 (WT), pAKT HTRF

T1 sequence (P42336 whole entry H1047R): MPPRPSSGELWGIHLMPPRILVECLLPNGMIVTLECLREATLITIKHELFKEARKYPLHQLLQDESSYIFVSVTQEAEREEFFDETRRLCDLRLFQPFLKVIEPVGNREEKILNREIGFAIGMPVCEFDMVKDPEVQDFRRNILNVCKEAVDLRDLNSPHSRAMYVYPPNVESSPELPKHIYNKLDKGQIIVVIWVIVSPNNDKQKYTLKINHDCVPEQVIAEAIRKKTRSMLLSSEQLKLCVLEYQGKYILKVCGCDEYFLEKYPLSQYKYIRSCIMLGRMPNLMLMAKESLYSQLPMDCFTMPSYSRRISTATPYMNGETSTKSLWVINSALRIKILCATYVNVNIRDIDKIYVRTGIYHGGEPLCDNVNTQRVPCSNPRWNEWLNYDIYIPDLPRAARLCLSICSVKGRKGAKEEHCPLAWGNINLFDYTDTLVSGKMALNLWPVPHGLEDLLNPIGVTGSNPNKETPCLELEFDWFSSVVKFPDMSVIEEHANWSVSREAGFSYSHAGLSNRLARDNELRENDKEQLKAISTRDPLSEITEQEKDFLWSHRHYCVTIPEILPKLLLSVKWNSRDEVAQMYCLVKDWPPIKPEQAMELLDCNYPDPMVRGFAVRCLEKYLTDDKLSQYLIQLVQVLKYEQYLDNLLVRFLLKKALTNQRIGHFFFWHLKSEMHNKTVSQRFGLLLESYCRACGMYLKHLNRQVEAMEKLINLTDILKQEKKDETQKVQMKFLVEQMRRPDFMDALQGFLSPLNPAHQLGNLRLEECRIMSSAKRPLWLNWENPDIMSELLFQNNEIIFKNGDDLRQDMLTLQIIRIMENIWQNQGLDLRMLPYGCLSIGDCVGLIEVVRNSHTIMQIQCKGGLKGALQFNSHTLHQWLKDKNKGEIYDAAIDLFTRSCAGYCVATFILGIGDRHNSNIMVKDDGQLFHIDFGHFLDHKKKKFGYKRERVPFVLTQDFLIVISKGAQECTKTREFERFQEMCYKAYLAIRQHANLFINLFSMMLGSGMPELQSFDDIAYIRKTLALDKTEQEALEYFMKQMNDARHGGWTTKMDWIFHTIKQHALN
T1 sequence (P27986 whole entry partner): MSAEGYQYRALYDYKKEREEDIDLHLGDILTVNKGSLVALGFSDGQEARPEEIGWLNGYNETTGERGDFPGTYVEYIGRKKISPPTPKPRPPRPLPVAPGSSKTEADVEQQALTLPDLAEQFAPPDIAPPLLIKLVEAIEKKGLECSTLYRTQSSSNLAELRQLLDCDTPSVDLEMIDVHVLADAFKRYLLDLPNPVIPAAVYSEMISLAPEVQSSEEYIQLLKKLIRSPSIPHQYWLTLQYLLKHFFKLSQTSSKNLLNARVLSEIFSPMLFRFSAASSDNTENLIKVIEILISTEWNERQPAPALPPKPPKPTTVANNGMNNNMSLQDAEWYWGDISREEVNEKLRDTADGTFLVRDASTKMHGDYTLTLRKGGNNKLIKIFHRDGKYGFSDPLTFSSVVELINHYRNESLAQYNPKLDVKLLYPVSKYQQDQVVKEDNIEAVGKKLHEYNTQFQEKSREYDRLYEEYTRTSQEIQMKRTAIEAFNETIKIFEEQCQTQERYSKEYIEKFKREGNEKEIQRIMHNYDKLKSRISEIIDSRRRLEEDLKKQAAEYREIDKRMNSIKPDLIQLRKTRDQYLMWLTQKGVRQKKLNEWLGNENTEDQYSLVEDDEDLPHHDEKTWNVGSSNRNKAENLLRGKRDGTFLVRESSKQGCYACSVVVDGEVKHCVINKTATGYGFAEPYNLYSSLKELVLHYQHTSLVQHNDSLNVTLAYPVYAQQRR

Structure (SMILES) | T47D pAKT S473 HTRF IC50 (H1047R): T47D (H1047R) selectivity over SKBR3 (WT) [1] | IC50 [2] [µM] | T47D pAKT S473 HTRF IC50 (H1047R): T47D (H1047R) selectivity over SKBR3 (WT) [3] | IC50 (EGF stimulation) [µM]
Cc1cc(C(C)Nc2ccccc2C(=O)O)c2nc(-c3cnc4c(c3)c(C)nn4C3CC3)c(C)c(=O)n2c1 (stereo not shown) [Compound 1054] | B (B denotes 20-fold≥value>5-fold) | – | – | –
Cc1cc(C(C)Nc2cc(C#N)ccc2C(=O)O)c2nc(N3CCOCC3)cc(=O)n2c1 (stereo not shown) [Compound 326] | – | > 2 | C (C denotes ≤5-fold) | –
Cc1cc(C(C)Nc2ccccc2C(=O)O)c2nc(-c3ccc4c(c(N)nn4C)c3C)cc(=O)n2c1 (stereo not shown) [Compound 701] | C (C denotes ≤5-fold) | – | – | > 2
Cc1cc([C@@H](C)Nc2ccccc2C(=O)O)c2nc(-c3cccc(C(F)F)c3)c(C)c(=O)n2c1 [Compound 972, (R)-2-((1-(2-(3-(difluoromethyl)phenyl)-3,7-dimethyl-4-oxo-4H-pyrido[1,2-a]pyrimidin-9-yl)ethyl)amino)benzoic acid] | A (A denotes >20-fold) | – | – | < 0.1
Cc1cc(C(C)Nc2ccccc2C(=O)O)c2nc(-c3ccc4c(c3)c(C)nn4C3CC3)cc(=O)n2c1 (stereo not shown) [Compound 890] | A (A denotes >20-fold) | – | – | < 0.1
Cc1cc([C@H](C)Nc2ccccc2C(=O)O)c2nc(-c3ccc4[nH]c(=O)oc4c3)cc(=O)n2c1 [Compound 542] | – | > 2 | C (C denotes ≤5-fold) | –
Cc1cc([C@@H](C)Nc2ccccc2C(=O)O)c2nc(-c3ccc4[nH]cnc4c3)cc(=O)n2c1 [Compound 516] | – | 0.1 to 0.5 | A (A denotes >20-fold) | –
Cc1cc([C@H](C)NC2=C(C(=O)O)C=CCC2)c2nc(-c3ccc(CC4CCN(C(=O)C5CC5)CC4)nc3)cc(=O)n2c1 [Compound 784] | C (C denotes ≤5-fold) | – | – | > 2
Cc1cc([C@H](C)Nc2ccccc2C(=O)O)c2nc(-c3ccc(F)c(C#N)c3)c(C)c(=O)n2c1 [Compound 948] | B (B denotes 20-fold≥value>5-fold) | – | – | 0.5 to 2
Cc1cc([C@@H](C)Nc2ccccc2C(=O)O)c2nc(-c3ccc4c(c3)c(C)nn4C)cc(=O)n2c1 (single isomer, unassigned) [Compound 739] | C (C denotes ≤5-fold) | – | – | > 2
Cc1cc([C@H](C)Nc2cccc3c2CCC(=O)N3)c2nc(N3CCOCC3)cc(=O)n2c1 [Compound 688] | C (C denotes ≤5-fold) | – | – | > 2
Cc1cc(C(C)Nc2ccccc2C(=O)O)c2nc(-c3ccc4c(c3)c(C)nn4C)cc(=O)n2c1 (stereo not shown) [Compound 725] | A (A denotes >20-fold) | – | – | < 0.1
Cc1cc([C@@H](C)Nc2ccccc2C(=O)O)c2nc(-c3ccc(CC4CCN(C(=O)C5CC5)CC4)c(F)c3)c(C)c(=O)n2c1 [Compound 1314] | – | – | A (A denotes >20-fold) | 0.1 to 0.5
Cc1cc([C@@H](C)Nc2ccccc2C(=O)O)c2nc(-c3ccc4c(c3)NC(=O)C4)cc(=O)n2c1 [Compound 575] | – | 0.1 to 0.5 | A (A denotes >20-fold) | –
Cc1ccc(N[C@H](C)c2cc(C)cn3c(=O)c(C)c(-c4cccc(F)c4)nc23)c(C(=O)O)c1 [Compound 1357] | – | – | C (C denotes ≤5-fold) | –
Cc1cc([C@H](C)Nc2ccccc2CC(=O)O)c2nc(N3CCSCC3)cc(=O)n2c1 [Compound 286] | – | > 2 | C (C denotes ≤5-fold) | –
Cc1cc([C@H](C)Nc2ccccc2C(=O)O)c2nc(-c3ccc4nc(CO)[nH]c4c3)cc(=O)n2c1 [Compound 489] | – | > 2 | C (C denotes ≤5-fold) | –
Cc1cc([C@H](C)Nc2ccccc2C(=O)O)c2nc(-c3cnc(C#N)c(Cl)c3)c(C)c(=O)n2c1 [Compound 1084] | – | – | C (C denotes ≤5-fold) | > 2
Cc1cc(C(C)Nc2ccccc2C(=O)O)c2nc(-c3cc(C)c4oc(=O)[nH]c4c3)cc(=O)n2c1 (stereo not shown) [Compound 1413, 2-((1-(7-methyl-2-(7-methyl-2-oxo-2,3-dihydrobenzo[d]oxazol-5-yl)-4-oxo-4H-pyrido[1,2-a]pyrimidin-9-yl)ethyl)amino)benzoic acid] | – | – | A (A denotes >20-fold) | 0.1 to 0.5
Cc1cc([C@H](C)Nc2ccccc2S(N)(=O)=O)c2nc([C@@H]3CCCN(CC(F)F)C3)c(C)c(=O)n2c1 [Compound 1311] | – | – | C (C denotes ≤5-fold) | > 2

Structure (SMILES) | T47D pAKT S473 HTRF IC50 (H1047R): T47D (H1047R) selectivity over SKBR3 (WT) [1] | IC50 [2] [µM] | T47D pAKT S473 HTRF IC50 (H1047R): T47D (H1047R) selectivity over SKBR3 (WT) [3] | IC50 (EGF stimulation) [µM]
Cc1cc(C(C)NC2=C(C(=O)O)C=CCC2)c2nc(-c3ccc(CC4CCN(C(=O)C5CC5)CC4)nc3)cc(=O)n2c1 (stereo not shown) [Compound 759] | C (C denotes ≤5-fold) | – | – | –
Cc1cc([C@H](C)Nc2ccccc2C(=O)O)c2nc(-c3ccc(C(=O)N(C)C)cc3)cc(=O)n2c1 [Compound 659] | C (C denotes ≤5-fold) | – | – | > 2
Cc1cc([C@H](C)Nc2ccccc2C(=O)O)c2nc(-c3ccc4c(C)cn(C)c4c3)c(C)c(=O)n2c1 [Compound 985] | C (C denotes ≤5-fold) | – | – | > 2
Cc1cc(C(C)Nc2ccccc2C(=O)O)c2nc(N3CCOC[C@H]3C)cc(=O)n2c1 (stereo partly shown) [Compound 295] | – | 0.5 to 2 | B (B denotes 20-fold≥value>5-fold) | –
Cc1cc([C@H](C)Nc2ccccc2C(=O)O)c2nc(-c3ccc4c(c3)c(C#N)nn4C)c(C)c(=O)n2c1 [Compound 1082] | – | – | B (B denotes 20-fold≥value>5-fold) | 0.5 to 2
Cc1cc([C@H](C)Nc2ccccc2C(=O)O)c2nc(-c3cc(C(N)=O)c4[nH]ccc4c3)cc(=O)n2c1 [Compound 754] | C (C denotes ≤5-fold) | – | – | > 2
Cc1cc([C@H](C)Nc2ccccc2S(C)(=O)=O)c2nc(-c3ccc4c(C)cn(C)c4c3)c(C)c(=O)n2c1 [Compound 1062] | – | – | C (C denotes ≤5-fold) | –
Cc1cc([C@@H](C)Nc2ccccc2C(=O)O)c2nc(-c3ccc4[nH]nc(C)c4c3)cc(=O)n2c1 [Compound 841] | C (C denotes ≤5-fold) | – | – | –
Cc1cc([C@H](C)Nc2ccccc2C(N)=O)c2nc(-c3ccc4c(C)cn(C)c4c3)c(C)c(=O)n2c1 [Compound 1131] | – | – | C (C denotes ≤5-fold) | > 2
Cc1cc([C@@H](C)Nc2ccccc2C(=O)O)c2nc(Nc3ccc4[nH]c(=O)oc4c3)cc(=O)n2c1 [Compound 546] | – | > 2 | C (C denotes ≤5-fold) | –
CCN1CCN(Cc2ccccc2-c2cc(=O)n3cc(C)cc(C(C)Nc4ccccc4C(=O)O)c3n2)CC1 (stereo not shown) [Compound 229] | – | > 2 | C (C denotes ≤5-fold) | –
Cc1cc([C@H](C)Nc2ccccc2C(=O)O)c2nc(-c3ccc4c(c3)c(N(C)C)nn4C)c(C)c(=O)n2c1 [Compound 920] | C (C denotes ≤5-fold) | – | – | > 2
Cc1cc([C@H](C)Nc2ccccc2C(=O)O)c2nc(-c3cccc(F)c3)c(C(C)C)c(=O)n2c1 [Compound 1278] | – | – | C (C denotes ≤5-fold) | > 2
Cc1cc([C@@H](C)NC2=C(CC(=O)O)C=CCC2)c2nc(N3CCSCC3)cc(=O)n2c1 [Compound 285] | – | > 2 | C (C denotes ≤5-fold) | –
Cc1cc([C@@H](C)Nc2ccccc2S(N)(=O)=O)c2nc(-c3ccc4c(c3)c(C)cn4C3CC3)c(C)c(=O)n2c1 [Compound 995] | C (C denotes ≤5-fold) | – | – | > 2
Cc1cc(C(C)Nc2ccccc2C(=O)O)c2nc(-c3ccc4c(n3)c(C)nn4C)c(C)c(=O)n2c1 (stereo not shown) [Compound 859] | A (A denotes >20-fold) | – | – | 0.1 to 0.5
Cc1cc([C@H](C)Nc2ccccc2C(=O)O)c2nc(-c3ccc4c(c(N)nn4C)c3C)c(C)c(=O)n2c1 [Compound 788] | A (A denotes >20-fold) | – | – | 0.1 to 0.5
Cc1cc([C@@H](C)Nc2ccccc2C(=O)O)c2nc(N3CCOC[C@H]3C)cc(=O)n2c1 [Compound 296] | – | > 2 | C (C denotes ≤5-fold) | –
Cc1cc(C(C)Nc2ccccc2C(=O)O)c2nc(-c3cc(F)cc(C4CC4)c3)c(C)c(=O)n2c1 (stereo not shown) [Compound 1169] | – | – | A (A denotes >20-fold) | < 0.1
